In patent US7091158B2, “Substituted thienyl(amino)sulphonylureas” (Bayer Aktiengesellschaft, priority 1999, dated 2006):
Each block holds one compound with its values, some of them ahead of it.

Key:
[1] = tested on: weeds; experiment: Pre-emergence test, activity against weeds; format: in vivo
Protocol: (§1) To produce a suitable preparation of active compound, 1 part by weight of active compound is mixed with the stated amount of solvent, the stated amount of emulsifier is added and the concentrate is diluted with water to the desired concentration.
(§2) Seeds of the test plants are sown in normal soil. After about 24 hours, the soil is sprayed with the preparation of active compound such that the particular amount of active compound desired is applied per unit area. The concentration of the spray liquor is chosen so that the particular amount of active compound desired is applied in 1000 litres of water per hectare.
(§3) After three weeks, the degree of damage to the plants is rated in % damage in comparison to the development of the untreated control.
(§4) The figures denote: • 0%=no effect (like untreated control) • 100%=total destruction

[2] = tested on: weeds; experiment: Post-emergence test, activity against weeds; format: in vivo
Protocol: (§5) To produce a suitable preparation of active compound, one part by weight of active compound is mixed with the stated amount of solvent, the stated amount of emulsifier is added and the concentrate is diluted with water to the desired concentration.
(§6) Test plants which have a height of 5–15 cm are sprayed with the preparation of active compound such that the particular amounts of active compound desired are applied per unit area. The concentration of the spray liquor is chosen so that the particular amounts of active compound desired are applied in 1000 l of water/ha.
as §3, §4

[3] = tested on: Stellaria; experiment: Post-emergence test/greenhouse; format: in vivo; conditions: after three weeks, vs untreated control
Protocol: as §5, §6, §3, §4

[4] = tested on: Abutilon; experiment: Post-emergence test/greenhouse; format: in vivo; conditions: after three weeks, vs untreated control
Protocol: as §5, §6, §3, §4

[5] = tested on: Barley; experiment: Post-emergence test/greenhouse; format: in vivo; conditions: 4 g of ai/ha, after three weeks, vs untreated control
Protocol: as §5, §6, §3, §4

[6] = tested on: Amaranthus; experiment: Post-emergence test/greenhouse; format: in vivo; conditions: after three weeks, vs untreated control
Protocol: as §5, §6, §3, §4

[7] = tested on: Alopecurus; experiment: Post-emergence test/greenhouse; format: in vivo; conditions: after three weeks, vs untreated control
Protocol: as §5, §6, §3, §4

[8] = tested on: Cotton; experiment: Pre-emergence test/greenhouse; format: in vivo; conditions: 15 g of ai/ha, after three weeks, vs untreated control
Protocol: as §1, §2, §3, §4

[9] = tested on: Stellaria; experiment: Pre-emergence test/greenhouse; format: in vivo; conditions: after three weeks, vs untreated control
Protocol: as §1, §2, §3, §4

[10] = tested on: Viola; experiment: Pre-emergence test/greenhouse; format: in vivo; conditions: after three weeks, vs untreated control
Protocol: as §1, §2, §3, §4

[11] = tested on: Amaranthus; experiment: Pre-emergence test/greenhouse; format: in vivo; conditions: after three weeks, vs untreated control
Protocol: as §1, §2, §3, §4

[12] = tested on: Alopecurus; experiment: Pre-emergence test/greenhouse; format: in vivo; conditions: after three weeks, vs untreated control
Protocol: as §1, §2, §3, §4

[13] = tested on: Abutilon; experiment: Pre-emergence test/greenhouse; format: in vivo; conditions: 250 g of ai/ha, after three weeks, vs untreated control
Protocol: as §1, §2, §3, §4

[14] = tested on: Sinapis; experiment: Pre-emergence test/greenhouse; format: in vivo; conditions: 250 g of ai/ha, after three weeks, vs untreated control
Protocol: as §1, §2, §3, §4

[15] = tested on: Cyperus; experiment: Pre-emergence test/greenhouse; format: in vivo; conditions: after three weeks, vs untreated control
Protocol: as §1, §2, §3, §4

[16] = tested on: Chenopodium; experiment: Post-emergence test/greenhouse; format: in vivo; conditions: Table B4, post-emergence, 125 g of ai/ha, after three weeks, vs untreated control
Protocol: as §5, §6, §3, §4

[17] = tested on: Ipomoea; experiment: Post-emergence test/greenhouse; format: in vivo; conditions: Table B4, post-emergence, 125 g of ai/ha, after three weeks, vs untreated control
Protocol: as §5, §6, §3, §4

[18] = tested on: Wheat; experiment: Post-emergence test/greenhouse; format: in vivo; conditions: 125 g of ai/ha, after three weeks, vs untreated control
Protocol: as §5, §6, §3, §4

[19] = tested on: Matricaria; experiment: Post-emergence test/greenhouse; format: in vivo; conditions: 125 g of ai/ha, after three weeks, vs untreated control
Protocol: as §5, §6, §3, §4

[20] = tested on: Setaria; experiment: Post-emergence test/greenhouse; format: in vivo; conditions: Table B4, post-emergence, 125 g of ai/ha, after three weeks, vs untreated control
Protocol: as §5, §6, §3, §4

[21] = tested on: Chenopodium; experiment: Pre-emergence test/greenhouse; format: in vivo; conditions: 125 g of ai/ha, after three weeks, vs untreated control
Protocol: as §1, §2, §3, §4

[22] = tested on: Maize; experiment: Pre-emergence test/greenhouse; format: in vivo; conditions: after three weeks, vs untreated control
Protocol: as §1, §2, §3, §4

[23] = tested on: Matricaria; experiment: Pre-emergence test/greenhouse; format: in vivo; conditions: after three weeks, vs untreated control
Protocol: as §1, §2, §3, §4

[24] = tested on: Viola; experiment: Post-emergence test/greenhouse; format: in vivo; conditions: after three weeks, vs untreated control
Protocol: as §5, §6, §3, §4

[25] = tested on: Lolium; experiment: Post-emergence test/greenhouse; format: in vivo; conditions: 15 g of ai/ha, after three weeks, vs untreated control
Protocol: as §5, §6, §3, §4

[26] = tested on: Echinochloa; experiment: Post-emergence test/greenhouse; format: in vivo; conditions: 15 g of ai/ha, after three weeks, vs untreated control
Protocol: as §5, §6, §3, §4

[27] = tested on: Veronica; experiment: Post-emergence test/greenhouse; format: in vivo; conditions: 15 g of ai/ha, after three weeks, vs untreated control
Protocol: as §5, §6, §3, §4

[28] = tested on: Soya; experiment: Pre-emergence test/greenhouse; format: in vivo; conditions: 4 g of ai/ha, after three weeks, vs untreated control
Protocol: as §1, §2, §3, §4

[29] = tested on: Veronica; experiment: Pre-emergence test/greenhouse; format: in vivo; conditions: 4 g of ai/ha, after three weeks, vs untreated control
Protocol: as §1, §2, §3, §4

[30] = tested on: Xanthium; experiment: Post-emergence test/greenhouse; format: in vivo; conditions: Table B3, post-emergence, 125 g of ai/ha, after three weeks, vs untreated control
Protocol: as §5, §6, §3, §4

[31] = Table A5, pre-emergence, 250 g of ai/ha
[32] = Table A4, pre-emergence, 250 g of ai/ha
[33] = Table B3, post-emergence, 125 g of ai/ha
[34] = Table A6, pre-emergence, 250 g of ai/ha

SMILES: COC(=O)c1csc(C)c1S(=O)(=O)NC(=O)Nc1nc(OC)cc(OC)n1 [Example 6]
- activity against weeds [1]: very strong activity
- activity against weeds [2]: very strong activity
- degree of damage to the plants, Stellaria ([3]; 4 g of ai/ha): 95%
- degree of damage to the plants, Abutilon ([4]; 4 g of ai/ha): 100%
- degree of damage to the plants, Barley [5]: 20%
- degree of damage to the plants, Amaranthus ([6]; post-emergence, 4 g of ai/ha): 100%
- degree of damage to the plants, Alopecurus ([7]; 4 g of ai/ha): 90%
- degree of damage to the plants, Cotton [8]: 0%
- degree of damage to the plants, Stellaria ([9]; 15 g of ai/ha): 90%
- degree of damage to the plants, Viola ([10]; 15 g of ai/ha): 100%
- degree of damage to the plants, Amaranthus ([11]; pre-emergence, 15 g of ai/ha): 90%
- degree of damage to the plants, Alopecurus ([12]; pre-emergence, 15 g of ai/ha): 80%

SMILES: CCOC(=O)c1csc(C(C)C)c1NS(=O)(=O)NC(=O)Nc1nc(OC)cc(OC)n1 [Example 4]
- activity against weeds [1]: very strong activity
- degree of damage to the plants, Abutilon ([13]; Table A5, pre-emergence): 95%
- degree of damage to the plants, Sinapis ([14]; Table A5, pre-emergence): 90%
- degree of damage to the plants, Cyperus [15, 31]: 90%
- degree of damage to the plants, Amaranthus [11, 31]: 90%
- degree of damage to the plants, Alopecurus [12, 31]: 100%

SMILES: CCc1scc(C(=O)OC)c1NS(=O)(=O)NC(=O)Nc1nc(OC)cc(OC)n1 [Example 5]
- activity against weeds [1]: very strong activity
- activity against weeds [2]: very strong activity
- degree of damage to the plants, Chenopodium [16]: 100%
- degree of damage to the plants, Ipomoea [17]: 100%
- degree of damage to the plants, Wheat ([18]; Table B4, post-emergence): 20%
- degree of damage to the plants, Matricaria ([19]; Table B4, post-emergence): 100%
- degree of damage to the plants, Setaria [20]: 90%
- degree of damage to the plants, Chenopodium [21]: 95%
- degree of damage to the plants, Viola ([10]; 125 g of ai/ha): 95%
- degree of damage to the plants, Cyperus ([15]; pre-emergence, 125 g of ai/ha): 95%
- degree of damage to the plants, Maize ([22]; pre-emergence, 125 g of ai/ha): 20%
- degree of damage to the plants, Matricaria ([23]; 125 g of ai/ha): 100%

- melting point: 195 °C
SMILES: COC(=O)c1csc(C)c1S(=O)(=O)NC(=O)Nc1nc(C)nc(OC)n1 [Example 1, N-(4-methoxy-6-methyl-1,3,5-triazin-2-yl)-N′-(4-methoxycarbonyl-2-methyl-thien-3-yl-sulphonyl)-urea]
- activity against weeds [1]: very strong activity
- activity against weeds [2]: very strong activity
- degree of damage to the plants, Stellaria ([3]; 15 g of ai/ha): 100%
- degree of damage to the plants, Abutilon ([4]; 15 g of ai/ha): 100%
- degree of damage to the plants, Viola ([24]; post-emergence, 15 g of ai/ha): 100%
- degree of damage to the plants, Lolium [25]: 100%
- degree of damage to the plants, Echinochloa [26]: 100%
- degree of damage to the plants, Alopecurus ([7]; 15 g of ai/ha): 100%
- degree of damage to the plants, Veronica [27]: 100%
- degree of damage to the plants, Stellaria ([9]; 4 g of ai/ha): 95%
- degree of damage to the plants, Viola ([10]; 4 g of ai/ha): 100%
- degree of damage to the plants, Matricaria ([23]; 4 g of ai/ha): 95%
- degree of damage to the plants, Soya [28]: 10%
- degree of damage to the plants, Veronica [29]: 95%

SMILES: CCCc1scc(C(=O)OCC)c1NS(=O)(=O)NC(=O)Nc1nc(OC)cc(OC)n1 [Example 3]
- activity against weeds [1]: very strong activity
- degree of damage to the plants, Abutilon ([13]; Table A4, pre-emergence): 80%
- degree of damage to the plants, Sinapis ([14]; Table A4, pre-emergence): 90%
- degree of damage to the plants, Amaranthus [11, 32]: 90%
- degree of damage to the plants, Alopecurus [12, 32]: 70%

- melting point: 174 °C
SMILES: COC(=O)c1csc(C)c1NS(=O)(=O)NC(=O)Nc1nc(OC)cc(OC)n1 [Example 2, N-(4,6-dimethoxy-pyrimidin-2-yl)-N′-(4-methoxycarbonyl-2-methyl-thien-3-yl-amino-sulphonyl)-urea]
- activity against weeds [1]: very strong activity
- activity against weeds [2]: very strong activity
- degree of damage to the plants, Xanthium [30]: 95%
- degree of damage to the plants, Viola [24, 33]: 100%
- degree of damage to the plants, Amaranthus [6, 33]: 100%
- degree of damage to the plants, Wheat ([18]; Table B3, post-emergence): 0%
- degree of damage to the plants, Matricaria ([19]; Table B3, post-emergence): 100%
- degree of damage to the plants, Abutilon ([13]; Table A6, pre-emergence): 90%
- degree of damage to the plants, Sinapis ([14]; Table A6, pre-emergence): 95%
- degree of damage to the plants, Cyperus [15, 34]: 95%
- degree of damage to the plants, Amaranthus [11, 34]: 95%
- degree of damage to the plants, Maize [22, 34]: 20%
